Experimental data: patent publication US10722520B2, “Heterocyclic compounds and their use in preventing or treating bacterial infections” (MUTABILIS, priority 2016, dated 2020)
Counter-ions that a name gives are not always drawn. Like-named read-outs stand apart in the source and are kept apart here.

Columns and labels:
[1] = molecular target: OXA-48 (Klebsiella pneumoniae, UniProt Q6XEC0)
[2] = molecular target: OXA-1 (Escherichia coli, UniProt P13661)
[3] = molecular target: CTX-M-15 (Escherichia coli, UniProt Q9EXV5)
[4] = molecular target: AmpC (PAE) (Pseudomonas aeruginosa, UniProt P24735); experiment: biochemical
[5] = molecular target: CMY-37 (Citrobacter freundii, UniProt P05193); conditions: read-out: IC50 β-lactamase CMY-37
[6] = molecular target: KPC-2 (Klebsiella pneumoniae, UniProt Q9F663)
[7] = molecular target: AmpC (P99) (Enterobacter cloacae, UniProt P05364); experiment: biochemical
[8] = molecular target: OXA-15 (Pseudomonas aeruginosa, UniProt Q51574); experiment: biochemical
[9] = molecular target: OXA-11 (Pseudomonas aeruginosa, UniProt Q06778)
[10] = molecular target: TEM-1 (Escherichia coli, UniProt P62593)
[11] = molecular target: SHV-1 (Klebsiella pneumoniae, UniProt P0AD64)
[12] = test system: K. pneumoniae 6299; experiment: MIC of compound alone, broth microdilution; format: cell-based; conditions: Klebsiella pneumoniae; strain 6299; compound alone; read-out: MIC compounds of the invention alone
Experimental: (§1) Log phase bacterial suspensions were adjusted to a final density of 5×10^5 cfu/mL in cation-adjusted Mueller-Hinton broth (Becton-Dickinson) and added to each well (98 μL). Microplates were incubated for 16-20 h at 35° C. in ambient air. The MIC of the compounds was defined as the lowest concentration of said compounds that prevented bacterial growth as read by visual inspection.

[13] = test system: E. cloacae P99; experiment: MIC of compound alone, broth microdilution; format: cell-based; conditions: Enterobacter cloacae; strain P99; compound alone; read-out: MIC compounds of the invention alone
Experimental: as §1

[14] = test system: E. coli 190317; experiment: MIC of compound alone, broth microdilution; format: cell-based; conditions: Escherichia coli; strain 190317; compound alone; read-out: MIC compounds of the invention alone
Experimental: as §1

[15] = test system: K. pneumoniae BAA-1898; experiment: MIC of compound alone, broth microdilution; format: cell-based; conditions: Klebsiella pneumoniae, BAA1898; strain BAA-1898; compound alone; read-out: MIC compounds of the invention alone
Experimental: as §1

[16] = test system: P. aeruginosa CIP107051; experiment: MIC of compound alone, broth microdilution; format: cell-based; conditions: Pseudomonas aeruginosa; strain CIP107051; compound alone; read-out: MIC compounds of the invention alone
Experimental: as §1

[17] = class (C), nitrocefin 200 μM, 30-min pre-incubation, enzyme 0.2 nM

| SMILES | IC50 [1] [nM] | IC50 [2] [nM] | IC50 [3] [nM] | IC50 [4] [nM] | IC50 [5] [nM] | IC50 [6] [nM] | IC50 [7] [nM] | IC50 [8] [nM] | IC50 [9] [nM] | IC50 [10] [nM] | IC50 [11] [nM] | MIC [12] [µg/mL] | MIC [13] [µg/mL] | MIC [14] [µg/mL] | MIC [15] [µg/mL] | MIC [16] [µg/mL] | IC50 [5, 17] [nM] |
| --- | --- | --- | --- | --- | --- | --- | --- | --- | --- | --- | --- | --- | --- | --- | --- | --- | --- |
| O=C1N2CC(n3cc(F)cn3)=CC(C2)N1OS(=O)(=O)[O-].[Na+] (stereo not drawn) [Example 14, sodium (7-oxo-3-(4-fluoropyrazol-1-yl)-1,6-diazabicyclo[3.2.1]oct-3-en-6-yl) sulfate] | 8.6 | 82 | 1.8 | 21 | 10 | 17 | 17 | 52 | 34 | 0.87 | 4 | 16 | 16 | 4 | 8 | > 32 | – |
| O=C(Nc1nncs1)c1ccn(C2=CC3CN(C2)C(=O)N3OS(=O)(=O)[O-])n1.[Na+] (stereo not drawn) [Example 84, sodium [7-oxo-3-[3-(1,3,4-thiadiazol-2-ylcarbamoyl)pyrazol-1-yl]-1,6-diazabicyclo[3.2.1]oct-3-en-6-yl]sulfate] | 7.2 | 150 | 1 | 160 | 20 | 8.5 | 25 | 98 | 22 | 0.78 | 2.7 | > 32 | > 32 | > 32 | > 32 | > 32 | – |
| O=C(NCCO)c1ccn(C2=CC3CN(C2)C(=O)N3OS(=O)(=O)[O-])n1.[Na+] (stereo not drawn) [Example 11, sodium [3-[3-(2-hydroxyethylcarbamoyl)pyrazol-1-yl]-7-oxo-1,6-diazabicyclo[3.2.1]oct-3-en-6-yl]sulfate] | 7.7 | 95 | 1.4 | 430 | 53 | 12 | 27 | 78 | 21 | 1.2 | 7.6 | > 32 | 32 | 16 | > 32 | > 32 | – |
| N#Cc1cnn(C2=CC3CN(C2)C(=O)N3OS(=O)(=O)[O-])c1.[Na+] (stereo not drawn) [Example 8, sodium [3-(4-cyanopyrazol-1-yl)-7-oxo-1,6-diazabicyclo[3.2.1]oct-3-en-6-yl]sulfate] | 3.5 | 100 | 0.78 | 140 | 16 | 3.3 | 7.6 | 5.3 | 20 | 0.35 | 2.5 | > 32 | > 32 | 8 | > 32 | > 32 | – |
| O=C(CO)Nc1ccn(C2=CC3CN(C2)C(=O)N3OS(=O)(=O)[O-])n1.[Na+] (stereo not drawn) [Example 50, sodium [3-[3-[(2-hydroxyacetyl)amino]pyrazol-1-yl]-7-oxo-1,6-diazabicyclo[3.2.1]oct-3-en-6-yl]sulfate] | 5.7 | 79 | 0.59 | 67 | 5.9 | 12 | 12 | 60 | 11 | 1.2 | 5.6 | 16 | 16 | 8 | 32 | > 32 | – |
| O=C(CCO)Nc1ccn(C2=CC3CN(C2)C(=O)N3OS(=O)(=O)[O-])n1.[Na+] (stereo not drawn) [Example 51, sodium [3-[3-(3-hydroxypropanoylamino)pyrazol-1-yl]-7-oxo-1,6-diazabicyclo[3.2.1]oct-3-en-6-yl]sulfate] | 3.8 | 97 | 0.28 | 78 | 6.3 | 18 | 17 | 76 | 12 | 0.3 | 1.9 | 16 | 16 | 8 | 32 | > 32 | – |
| O=C(Nc1ccn(C2=CC3CN(C2)C(=O)N3OS(=O)(=O)O)n1)c1cncs1 (stereo not drawn) [Example 77, [3-[3-[thiazole-5-carbonyl]amino]pyrazol-1-yl]-7-oxo-1,6-diazabicyclo[3.2.1]oct-3-en-6-yl]hydrogen sulfate] | 7.8 | 140 | 1.5 | 58 | – | 11 | 11 | 46 | 16 | 1.1 | 5.2 | > 32 | > 32 | > 32 | > 32 | > 32 | 7.1 |
| O=C1N2CC(n3cc(CNCCO)nn3)=CC(C2)N1OS(=O)(=O)O (stereo not drawn) [Example 67, [3-(4-(2-(methylamino)ethanol)triazol-1-yl)-7-oxo-1,6-diazabicyclo[3.2.1]oct-3-en-6-yl]hydrogen sulfate] | 1.6 | 270 | 1.3 | 720 | – | 20 | 38 | 18 | 250 | 1.2 | 8.4 | > 32 | 4 | 2 | > 32 | > 32 | 100 |
| O=C1N2CC(n3ncnn3)=CC(C2)N1OS(=O)(=O)[O-].[Na+] (stereo not drawn) [Example 44, sodium [7-oxo-3-(tetrazol-2-yl)-1,6-diazabicyclo[3.2.1]oct-3-en-6-yl]sulfate] | 0.29 | 36 | 0.86 | 150 | 26 | 7.3 | 13 | 32 | 20 | 0.48 | 3.3 | 4 | 4 | 1 | 4 | > 32 | – |
| [2H]c1nn(C2=CC3CN(C2)C(=O)N3OS(=O)(=O)[O-])c([2H])c1[2H].[Na+] (stereo not drawn) [Example 43, sodium [7-oxo-3-(3,4,5-trideuteriopyrazol-1-yl)-1,6-diazabicyclo[3.2.1]oct-3-en-6-yl]sulfate] | 6 | 98 | 0.87 | 9.4 | 6.4 | 29 | 12 | 140 | 39 | 0.85 | 3.6 | 8 | 4 | 1 | 8 | > 32 | – |
| NC(=O)CONC(=O)c1ccn(C2=CC3CN(C2)C(=O)N3OS(=O)(=O)[O-])n1.[Na+] (stereo not drawn) [Example 52, sodium [3-[3-[(2-amino-2-oxo-ethoxy)carbamoyl]pyrazol-1-yl]-7-oxo-1,6-diazabicyclo[3.2.1]oct-3-en-6-yl]sulfate] | 7.5 | 310 | 0.67 | 110 | 8.8 | 11 | 16 | 260 | 130 | 1.9 | 9.1 | 16 | 16 | 8 | 32 | > 32 | – |
| O=C(NOCCO)c1ccn(C2=CC3CN(C2)C(=O)N3OS(=O)(=O)[O-])n1.[Na+] (stereo not drawn) [Example 47, sodium [3-[3-(2-hydroxyethoxycarbamoyl)pyrazol-1-yl]-7-oxo-1,6-diazabicyclo[3.2.1]oct-3-en-6-yl]sulfate] | 6.7 | 200 | 1.1 | 480 | 32 | 12 | 32 | 160 | 100 | 1.5 | 9.1 | 32 | 32 | 8 | 32 | > 32 | – |
